Columns and labels:
KCNQ4 = molecular target: T1, KCNQ4 (Homo sapiens, UniProt P56696); assay: Two-electrode voltage clamp of KCNQ4 currents in Xenopus oocytes; assay type: cell-based
T1 construct: A complete cDNA was assembled and cloned into the oocyte expression vector PTLN; expressed in transfected cells; host or cells: Xenopus oocytes injected with capped cRNA from the PTLN vector
T1 sequence (P56696 1-695): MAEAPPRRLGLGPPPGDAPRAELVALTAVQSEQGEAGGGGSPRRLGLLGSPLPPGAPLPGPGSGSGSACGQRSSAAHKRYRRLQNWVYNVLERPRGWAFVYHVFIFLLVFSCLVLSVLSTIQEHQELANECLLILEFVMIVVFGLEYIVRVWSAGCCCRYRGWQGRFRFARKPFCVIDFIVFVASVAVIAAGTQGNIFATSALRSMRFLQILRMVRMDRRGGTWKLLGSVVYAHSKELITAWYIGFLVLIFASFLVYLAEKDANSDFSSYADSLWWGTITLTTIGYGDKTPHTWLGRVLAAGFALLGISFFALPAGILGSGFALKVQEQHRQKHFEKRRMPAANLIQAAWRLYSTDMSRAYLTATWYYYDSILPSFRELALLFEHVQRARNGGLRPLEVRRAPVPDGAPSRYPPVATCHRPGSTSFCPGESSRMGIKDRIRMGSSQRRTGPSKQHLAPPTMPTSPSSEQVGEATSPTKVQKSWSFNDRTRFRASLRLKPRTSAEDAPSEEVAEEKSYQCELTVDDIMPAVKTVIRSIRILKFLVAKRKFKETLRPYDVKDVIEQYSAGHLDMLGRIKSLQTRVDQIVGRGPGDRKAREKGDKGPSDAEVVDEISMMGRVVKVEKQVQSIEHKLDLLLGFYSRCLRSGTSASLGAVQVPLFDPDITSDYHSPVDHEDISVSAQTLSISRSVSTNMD
Description: (§1) KCNQ4 was expressed in Xenopus oocytes and its activity was investigated by two-electrode voltage clamping.
(§2) After linearization of the KCNQ4-containing PTLN vector with Hpal, capped cRNA was transcribed in vitro using the mMessage mMachine cRNA synthesis kit (Ambion). Usually 5 - 15 ng of cRNA were injected into Xenopus oocytes previously isolated by manual defolliculation and short collagenase treatment. In co-expression experiments cRNAs were injected at a 1:1 ratio. Oocytes were kept at 17°C in modified Barth's solution (90 mM NaCl, 1 mM KCl, 0.41 mM CaCl2, 0.33 mM Ca(NO3)2, 0.82 mM MgSO4, 10 mM HEPES, 100 U penicillin-100 µg streptomycin/ml, pH 7.6).
(§3) Standard two-electrode voltage-clamp measurements were performed at room temperature 2-4 days after injection using a Turbotec 05 amplifier (npi instruments, Tamm, Germany) and pClamp 5.5 software (Axon Instruments). Currents were usually recorded in ND98 solution (see Table 2). Solutions for Na^+ / K^+ replacement experiments were prepared from an appropriate mixture of solution KD100 (100 mM KCl) and ND100 (100 mM NaCl) to yield the stated concentrations of Na^+ and K^+. Linopirdine (RBI, Natick, MA) was prepared as a 100 mM stock solution in DMSO and added to a final concentration of 200 µM to ND98.

KCNQ2/KCNQ3 channels = conditions: concentration of 200 µM; cited from earlier work
KCNQ3/KCNQ4 = molecular target: T2, KCNQ3/KCNQ4 (Homo sapiens, UniProt O43525+P56696); assay: Two-electrode voltage clamp of Xenopus oocytes co-injected with KCNQ3 and KCNQ4 cRNA; assay type: cell-based; conditions: 200 µM Linopirdine in ND98, currents measured at +40 mV, cRNAs 1:1
T2 construct: A complete cDNA was assembled and cloned into the oocyte expression vector PTLN; expressed in transfected cells; host or cells: Xenopus oocytes co-injected with KCNQ3 and KCNQ4 cRNA
T2 sequence (P56696 1-695): T1 sequence (P56696 1-695)
T2 sequence (O43525 1-872): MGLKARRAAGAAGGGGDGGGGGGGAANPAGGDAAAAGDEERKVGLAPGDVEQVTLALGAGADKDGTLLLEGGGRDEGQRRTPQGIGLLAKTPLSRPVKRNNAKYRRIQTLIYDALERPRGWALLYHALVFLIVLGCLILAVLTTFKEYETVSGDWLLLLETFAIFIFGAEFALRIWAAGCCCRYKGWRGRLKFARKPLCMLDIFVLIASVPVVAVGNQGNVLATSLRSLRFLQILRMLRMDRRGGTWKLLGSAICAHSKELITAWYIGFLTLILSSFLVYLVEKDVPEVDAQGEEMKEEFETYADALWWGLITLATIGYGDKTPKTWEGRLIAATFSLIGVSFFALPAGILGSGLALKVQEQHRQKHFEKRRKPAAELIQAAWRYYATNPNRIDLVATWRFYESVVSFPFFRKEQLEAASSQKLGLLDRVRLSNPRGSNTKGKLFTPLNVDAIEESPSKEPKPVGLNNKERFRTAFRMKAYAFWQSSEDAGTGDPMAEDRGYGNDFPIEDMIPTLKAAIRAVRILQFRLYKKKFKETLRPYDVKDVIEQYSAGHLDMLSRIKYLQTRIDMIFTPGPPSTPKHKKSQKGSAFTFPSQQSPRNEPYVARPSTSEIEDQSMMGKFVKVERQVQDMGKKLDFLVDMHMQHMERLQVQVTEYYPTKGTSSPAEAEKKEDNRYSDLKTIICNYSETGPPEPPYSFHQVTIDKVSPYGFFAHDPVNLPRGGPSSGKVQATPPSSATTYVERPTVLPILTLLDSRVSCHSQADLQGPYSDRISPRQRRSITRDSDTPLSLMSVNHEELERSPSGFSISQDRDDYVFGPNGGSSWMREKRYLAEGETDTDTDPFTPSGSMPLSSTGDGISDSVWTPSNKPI
Description: as §1, §2, §3

inhibition at 200 µM (KCNQ4; 200 µM Linopirdine in ND98, currents measured at +40 mV, Xenopus oocytes): ~30%
time until steady-state inhibition was reached, KCNQ4 currents (KCNQ4; upon addition of 200 µM Linopirdine): ~ 1 min
inhibition with KCNQ3/KCNQ4 co-expression (KCNQ3/KCNQ4): ≈ 75%
SMILES: O=C1N(c2ccccc2)c2ccccc2C1(Cc1ccncc1)Cc1ccncc1 [Linopirdine, 1,3-dihydro-1-phenyl-3,3-bis(4-pyridylmethyl)-2H-indol-2-one]
inhibition of KCNQ2/KCNQ3 channels (KCNQ2/KCNQ3 channels): nearly completely inhibits

Source: patent publication EP1147134B1, “NOVEL POTASSIUM CHANNELS AND GENES ENCODING THESE POTASSIUM CHANNELS” (NEUROSEARCH A/S, priority 1999, dated 2000)
